Experimental data from patent US20080200531A1, “CDKI pathway inhibitors as inhibitors of tumor cell growth” (priority 2006, published 2008).

How the values were obtained:
[1] = system: p21-induced CMV-GFP expression (CDKI pathway); assay: CMV-GFP reporter assay for p21-induced transcription (HTS) in HT1080 p21-9 derived reporter cell line; type: cell-based, human; settings: for anti-CDKI pathway activity in the reporter assay (induction of CMV-GFP expression in response to p21): libraries screened at 20 μM
From the text: As described in a co-pending patent application PCT/US06/0 1046, we have developed a high-throughput screening (HTS) procedure for compounds inhibiting the CDKI pathway. This procedure utilizes a highly sensitive reporter cell line that was generated by infecting HT1080 p21-9 cells, a derivative of HT1080 fibrosarcoma cells that express p21 from a promoter induced by a physiologically neutral β-galactoside IPTG (isopropyl-β-thio-galactoside) with a lentiviral vector that expresses Green Fluorescent Protein (GFP) from the CDKI-inducible cytomegalovirus (CMV) promoter, followed by subcloning of GFP positive cells and monitoring the induction of GFP expression by IPTG. A cell line showing approximately 10-fold increase in GFP upon the addition of IPTG was used for HTS in a 96-well format.
This reporter line was used to screen two diversified small-molecule libraries developed by ChemBridge Corp., Microformat 04 and DiverSet, each comprising 50,000 compounds. These diversified libraries were rationally chosen by ChemBridge by quantifying pharmacophores in a collection of >500,000 drug-like molecules, using a version of Chem-X software to maximize the pharmacophore diversity. The Microformat 04 collection was designed to complement the chemical space covered by the older DiverSet library. ChemBridge libraries have been successfully used by numerous industrial and academic researchers, in a variety of cell-based and cell-free assays. The ChemBridge libraries were screened at 20 μM concentration, a conventional concentration for cell-based screening of these libraries. 62 of 100,000 ChemBridge compounds were identified by HTS and verified as inhibiting the induction of CMV-GFP expression in response to p21. This low hit rate (0.06%) indicates a high selectivity of our assay.
In this experiment, HT1080 p21-9 cells that express firefly luciferase from a CDKI-responsive promoter of cellular NK4 gene were cultured with IPTG for two days, which is sufficient for near-maximal induction of NK4 (Poole et al., supra).

[2] = system: isogenic human fibroblast cell lines (untransformed, partially transformed, fully transformed); assay: Dose-dependent growth inhibition of three isogenic human fibroblast cell lines with increasing neoplastic transformation; type: cell-based; settings: 3-day assay, Hoechst 33342
From the text: To determine if tumor-specific growth inhibitory activity of SNX9 class compounds could be due to the inhibition of a specific CDK, we took advantage of the availability of selective inhibitors for some of the CDK proteins. Among these enzymes, CDK1, CDK2 and CDK4/CDK6 (the latter two CDKs are closely related to each other and interact with the same class of cyclins), have been used as targets for developing specific inhibitors, with potential anticancer activity. In contrast, CDK3 has not been used as a target for developing selective inhibitors. We have obtained commercially available selective inhibitors of CDK1 (CGP74514A) (Calbiochem Cat. No. 217696), CDK2 (CVT-313) (Calbiochem Cat. No. 238803), and CDK4 (NSC 625987) (Calbiochem Cat. No. 219477), and tested them, along with a broad-specificity CDK inhibitor flavopiridol, and with SNX14, SNX9 and SNX9-1, for growth inhibition of normal and transformed fibroblasts.
This analysis was done using a set of three isogenic human fibroblast cell lines with increasing degrees of neoplastic transformation (immortal but untransformed, partially transformed, and fully transformed).

[3] = target: CDK2/cyclinA (h), CDK2/cyclinE (h); assay: Cyclin/CDK kinase assay (Upstate), CDK2/cyclinA and CDK2/cyclinE; type: biochemical, human; settings: 100 μM, re-tested at 20 and 40 μM (SNX9, SNX2) or 10 and 20 μM (SNX9-1, SNX14)
Experimental: To test the above hypothesis, we determined whether several CDKI pathway inhibitors, including two SNX9 class compounds (SNX9 and SNX9-1), two compounds of a different structural class (SNX14 and SNX2) and another unrelated inhibitor (SNX35), inhibit the kinase activity of different complexes formed in vitro by purified cyclin/CDK complexes. This analysis was carried out as a service by Upstate Biotechnology, Inc.
In a final reaction volume of 25 μl, CDK2/cyclinA (h) (5-10 mU) is incubated with 8 mM MOPS pH 7.0, 0.2 mM EDTA, 0.1 mg/ml histone H1, 10 mM MgAcetate and [γ-33P-ATP] (specific activity approx. 500 cpm/pmol, 45 μM concentration). The reaction is initiated by the addition of the MgATP mix. After incubation for 40 minutes at room temperature, the reaction is stopped by the addition of 5 μl of a 3% phosphoric acid solution. 10 μl of the reaction is then spotted onto a P30 filtermat and washed three times for 5 minutes in 75 mM phosphoric acid and once in methanol prior to drying and scintillation counting.
In a final reaction volume of 25 μl, CDK2/cyclinE (h) (5-10 mU) is incubated with 8 mM MOPS pH 7.0, 0.2 mM EDTA, 0.1 mg/ml histone H1, 10 mM MgAcetate and [γ-33P-ATP] (specific activity approx. 500 cpm/pmol, 120 μM concentration). The reaction is initiated by the addition of the MgATP mix. […]

SMILES | anti-CDKI pathway activity in the reporter assay (induction of CMV-GFP expression in response to p21) [1] | selectivity of growth inhibition for transformed cell lines relative to immortal but untransformed fibroblasts [2] | kinase activity of CDK2 [3] | normalized GFP expression without p21 induction ([1]; in the absence of IPTG) | normalized GFP expression with p21 induction ([1]; in the presence of IPTG, three days of p21 induction)
NCCc1c[nH]c2c(Cl)cc(Cl)cc12 [SNX9-1] | showed anti-CDKI pathway activity in the reporter assay | pronounced selectivity for partially transformed or fully transformed cell lines | inhibited the kinase activities |  | 
Cc1[nH]c2c(Cl)cccc2c1CCN [SNX9] | showed anti-CDKI pathway activity in the reporter assay | pronounced selectivity for partially transformed or fully transformed cell lines | inhibited the kinase activities | does not inhibit promoter function when p21 is not induced | pronounced inhibition of transcription by p21
